Read-outs that look alike come from different tables or passages of the source.
Legend:
Type in all cases: cell-based
hGIPR = target: T1, hGIPR (Homo sapiens, UniProt P48546); test: Functional cAMP formation (HTRF) in HEK-293 clonal cells expressing hGIPR, 0.1% bovine casein, without or with 1.0% human serum albumin; conditions: for Emax: percent of maximal response to GIP(1-42)NH2; for EC50: cAMP
T1 construct: expressed in transfected cells
T1 sequence (P48546 22-466): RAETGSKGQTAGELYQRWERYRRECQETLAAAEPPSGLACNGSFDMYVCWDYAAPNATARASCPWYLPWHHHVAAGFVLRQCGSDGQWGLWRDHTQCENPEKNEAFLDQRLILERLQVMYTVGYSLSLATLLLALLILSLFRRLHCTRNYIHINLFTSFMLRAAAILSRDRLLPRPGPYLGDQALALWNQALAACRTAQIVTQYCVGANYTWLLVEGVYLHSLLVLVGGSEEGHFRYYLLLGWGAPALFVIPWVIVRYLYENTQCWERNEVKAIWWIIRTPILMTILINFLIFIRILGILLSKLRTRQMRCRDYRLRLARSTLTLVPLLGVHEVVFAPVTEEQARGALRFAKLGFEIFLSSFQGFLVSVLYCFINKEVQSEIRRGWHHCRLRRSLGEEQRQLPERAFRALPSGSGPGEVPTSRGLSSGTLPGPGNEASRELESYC
Procedure, shortened: (§1)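 Cells were stimulated with peptide for 30 min at 37° C, then lysed in buffer carrying cAMP-d2 and anti-cAMP Eu3+-cryptate for a competitive HTRF read after at least 60 min at room temperature. The 665/620 nm ratio was converted to nM cAMP against a standard curve.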

hGCGR = target: T2, hGCGR (Homo sapiens, UniProt P47871); test: Functional cAMP formation (HTRF) in HEK-293 clonal cells expressing hGCGR, 0.1% bovine casein, without or with 1.0% human serum albumin
T2 construct: expressed in transfected cells
T2 sequence (P47871 26-477): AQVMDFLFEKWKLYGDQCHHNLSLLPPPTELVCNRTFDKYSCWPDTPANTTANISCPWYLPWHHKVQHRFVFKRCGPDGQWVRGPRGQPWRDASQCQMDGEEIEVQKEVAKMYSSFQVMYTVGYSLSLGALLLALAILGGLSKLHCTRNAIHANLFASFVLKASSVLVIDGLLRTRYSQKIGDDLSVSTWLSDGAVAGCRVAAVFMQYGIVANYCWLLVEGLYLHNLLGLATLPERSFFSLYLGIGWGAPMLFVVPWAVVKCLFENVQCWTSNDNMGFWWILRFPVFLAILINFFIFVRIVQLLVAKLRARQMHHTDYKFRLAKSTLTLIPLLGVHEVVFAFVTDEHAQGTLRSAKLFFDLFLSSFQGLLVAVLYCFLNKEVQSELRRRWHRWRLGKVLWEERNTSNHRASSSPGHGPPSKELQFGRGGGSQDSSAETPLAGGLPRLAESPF
Procedure, shortened: as §1

hGLP-1R = hGLP-1R (Homo sapiens, UniProt P43220); test: Functional cAMP formation (HTRF) in HEK-293 clonal cells expressing hGLP-1R, 0.1% bovine casein, without or with 1.0% human serum albumin; set-up: expressed in transfected cells; conditions: for EC50: geometric mean
hGLP-1R, sequence (P43220 24-463): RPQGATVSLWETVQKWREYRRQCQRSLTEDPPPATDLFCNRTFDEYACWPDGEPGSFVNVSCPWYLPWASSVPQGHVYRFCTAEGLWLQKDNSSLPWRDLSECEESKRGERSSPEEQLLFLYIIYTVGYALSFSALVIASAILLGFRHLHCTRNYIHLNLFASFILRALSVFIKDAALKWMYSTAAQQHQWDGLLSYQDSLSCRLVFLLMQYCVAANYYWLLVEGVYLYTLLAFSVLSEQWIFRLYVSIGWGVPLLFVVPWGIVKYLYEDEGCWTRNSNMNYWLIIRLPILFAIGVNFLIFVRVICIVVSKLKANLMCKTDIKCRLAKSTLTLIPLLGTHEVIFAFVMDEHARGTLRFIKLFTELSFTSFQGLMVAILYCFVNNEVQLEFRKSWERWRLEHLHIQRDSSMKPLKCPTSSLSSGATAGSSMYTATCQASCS
Procedure, shortened: as §1

Compound	Emax (hGIPR; HEK293, read-out: hGIPR Emax, % ± SEM, 0.1% bovine casein and 1.0% human serum albumin, 37° C.) [%]	EC50 (hGIPR; hGIPR EC50, nM (SEM, n), incubated at 37° C., 0.1% bovine casein (no human serum albumin), geometric mean) [nM]	EC50 (hGCGR; hGCGR EC50, nM (SEM, n), 0.1% bovine casein and 1.0% human serum albumin, 37° C., geometric mean) [nM]	EC50 (hGCGR; hGCGR EC50, nM (SEM, n), cAMP, incubated at 37° C., 0.1% bovine casein (no human serum albumin), geometric mean) [nM]	Emax (hGLP-1R; HEK293, read-out: hGLP-1R Emax, % ± SEM, 0.1% bovine casein and 1.0% human serum albumin, 37° C., percent of maximal response to GLP-1(7-36)NH2) [%]	Emax (hGLP-1R; HEK293, read-out: hGLP-1R Emax, % ± SEM, percent of maximal response to GLP-1(7-36)NH2, 37° C., 0.1% bovine casein, arithmetic mean) [%]	EC50 (hGLP-1R; hGLP-1R EC50, nM (SEM, n), 0.1% bovine casein and 1.0% human serum albumin, 37° C.) [nM]	EC50 (hGLP-1R; hGLP-1R EC50, nM (SEM, n), cAMP, incubated at 37° C., 0.1% bovine casein (no human serum albumin)) [nM]	Emax (hGIPR; HEK293, cAMP, 37° C., 0.1% bovine casein and 1.0% human serum albumin, read-out: hGIPR Emax, % ± SEM) [%]	EC50 (hGIPR; 37° C., 0.1% bovine casein (no human serum albumin), geometric mean, read-out: hGIPR EC50, nM (SEM, n)) [nM]	EC50 (hGIPR; 37° C., 0.1% bovine casein and 1.0% human serum albumin, geometric mean (SEM, n), read-out: hGIPR EC50, nM (SEM, n)) [nM]	EC50 (hGCGR; cAMP, 37° C., 0.1% bovine casein (no human serum albumin), geometric mean, read-out: hGCGR EC50, nM (SEM, n)) [nM]	EC50 (hGCGR; cAMP, 37° C., 0.1% bovine casein and 1.0% human serum albumin, geometric mean (SEM, n), read-out: hGCGR EC50, nM (SEM, n)) [nM]	Emax (hGLP-1R; HEK293, cAMP, 37° C., 0.1% bovine casein and 1.0% human serum albumin, percent of maximal response to GLP-1(7-36)NH2, read-out: hGLP-1R Emax, % ± SEM) [%]	Emax (hGLP-1R; HEK293, cAMP, 37° C., 0.1% bovine casein, percent of maximal response to GLP-1(7-36)NH2, arithmetic mean, read-out: hGLP-1R Emax, % ± SEM) [%]	EC50 (hGLP-1R; cAMP, 37° C., 0.1% bovine casein (no human serum albumin), read-out: hGLP-1R EC50, nM (SEM, n)) [nM]
CC[C@H](C)[C@H](NC(=O)[C@H](CC(C)C)NC(=O)[C@](C)(Cc1ccc(O)cc1)NC(=O)[C@@H](CCC(=O)O)NC(=O)[C@@H](NC(=O)[C@H](Cc1ccccc1)NC(=O)[C@H](CCCCNC(=O)COCCOCCNC(=O)COCCOCCNC(=O)CC[C@H](NC(=O)CCCCCCCCCOc1ccc(C(=O)O)cc1)C(=O)O)NC(=O)C(C)(C)NC(=O)[C@H](CCC(N)=O)NC(=O)[C@H](C)NC(=O)[C@H](CCCCNC(=O)COCCOCCNC(=O)COCCOCCNC(=O)CC[C@H](NC(=O)CCCCCCCCCOc1ccc(C(=O)O)cc1)C(=O)O)NC(=O)[C@H](CCCN)NC(=O)[C@H](CC(=O)O)NC(=O)[C@H](CC(C)C)NC(=O)[C@](C)(CC(C)C)NC(=O)[C@@H](NC(=O)C(C)(C)NC(=O)[C@H](Cc1ccc(O)cc1)NC(=O)[C@H](CC(=O)O)NC(=O)[C@H](CO)NC(=O)[C@@H](NC(=O)[C@](C)(Cc1ccccc1F)NC(=O)[C@@H](NC(=O)CNC(=O)[C@H](CCC(=O)O)NC(=O)C(C)(C)NC(=O)[C@@H](N)Cc1ccc(O)cc1)[C@@H](C)O)[C@@H](C)O)[C@@H](C)CC)[C@@H](C)CC)C(=O)N[C@@H](CCC(=O)O)C(=O)NCC(=O)NCC(=O)N1CCC[C@H]1C(=O)N[C@@H](CO)C(=O)N[C@@H](CO)C(=O)NCC(=O)N[C@@H](C)C(=O)N1CCC[C@H]1C(=O)N1CCC[C@H]1C(=O)N1CCC[C@H]1C(=O)N[C@@H](CO)C(N)=O [Example 236]	80.5	0.0154	> 9950	> 9950	125	96.5	32.6	0.336	–	–	–	–	–	–	–	–
CC[C@H](C)[C@H](NC(=O)[C@H](CC(C)C)NC(=O)[C@](C)(Cc1ccc(O)cc1)NC(=O)[C@H](CCCCNC(=O)CCOCCOCCOCCOCCOCCNC(=O)CC[C@H](NC(=O)CCCCCCCCCCCCC(=O)O)C(=O)O)NC(=O)[C@@H](NC(=O)[C@H](Cc1ccccc1)NC(=O)[C@H](CCCN)NC(=O)C(C)(C)NC(=O)[C@H](CCC(N)=O)NC(=O)[C@H](C)NC(=O)[C@H](CCC(N)=O)NC(=O)[C@H](CCCN)NC(=O)[C@H](CC(=O)O)NC(=O)[C@H](CC(C)C)NC(=O)[C@](C)(CC(C)C)NC(=O)[C@@H](NC(=O)C(C)(C)NC(=O)[C@H](Cc1ccncc1)NC(=O)[C@H](CC(=O)O)NC(=O)[C@H](CO)NC(=O)[C@@H](NC(=O)[C@](C)(Cc1ccccc1F)NC(=O)[C@@H](NC(=O)CNC(=O)[C@H](CCC(=O)O)NC(=O)C(C)(C)NC(=O)[C@@H](N)Cc1ccc(O)cc1)[C@@H](C)O)[C@@H](C)O)[C@@H](C)CC)[C@@H](C)CC)C(=O)N[C@@H](CCCCNC(=O)CCOCCOCCOCCOCCOCCNC(=O)CC[C@H](NC(=O)CCCCCCCCCCCCC(=O)O)C(=O)O)C(=O)NCC(=O)NCC(=O)N1CCC[C@H]1C(=O)N[C@@H](CO)C(=O)N[C@@H](CO)C(=O)NCC(=O)N[C@@H](C)C(=O)N1CCC[C@H]1C(=O)N1CCC[C@H]1C(=O)N1CCC[C@H]1C(=O)N[C@@H](CO)C(N)=O [Example 467]	–	–	–	–	–	–	–	–	88.4	0.0113	0.35	> 10100	> 10100	97.9	110	0.131

— patent US20230265151A1, “GIP/GLP1 CO-AGONIST COMPOUNDS” (priority 2020, published 2023)
